Measurements from ChEMBL document CHEMBL1201862, “PubChem BioAssay data set” (2004).
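Dose response: 5 concentrations. Exposure: 48 h. Format: 96-well plates. Endpoint: linear interpolation; highest concentration if not reached. At the GI50, growth is halved.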 The source made the active and inactive calls. No stated cut-off is given here; in the data, active = GI50 up to about 1.1 µM and inactive = higher.

How the values were obtained:
Assay in all cases: inhibition of tumour cell growth, NCI panel, 48 h
CAKI-1 = test system: CAKI-1
SN12C = test system: SN12C
SK-MEL-2 = test system: SK-MEL-2
HL-60 = test system: HL-60
OVCAR-3 = test system: OVCAR-3
U-251 = test system: U-251
ACHN = test system: ACHN
HT-29 = test system: HT-29
IGROV-1 = test system: IGROV-1
UACC-257 = test system: UACC-257
HOP-92 = test system: HOP-92
MDA-MB-231 = test system: MDA-MB-231
NCI-H460 = test system: NCI-H460
CCRF-CEM = test system: CCRF-CEM
MOLT-4 = test system: MOLT-4
Hs-578T = test system: Hs-578T
SNB-75 = test system: SNB-75
A549 = test system: A549
SR = test system: SR
MDA-N = test system: MDA-N

Structure (SMILES) | GI50 (CAKI-1) | GI50 (SN12C) | GI50 (SK-MEL-2) | GI50 (HL-60) | GI50 (OVCAR-3) | GI50 (U-251) | GI50 (ACHN) | GI50 (HT-29) | GI50 (IGROV-1) | GI50 (UACC-257) | GI50 (HOP-92) | GI50 (MDA-MB-231) | GI50 (NCI-H460) | GI50 (CCRF-CEM) | GI50 (MOLT-4) | GI50 (Hs-578T) | GI50 (SNB-75) | GI50 (A549) | GI50 (SR) | GI50 (MDA-N)
CC(=O)OC(CN1CCN(c2ccccn2)CC1)Cn1sc2nc(C)cc(C)c2c1=O (stereo not given) | 18.9 µM (inactive) | 18.9 µM (inactive) | 18.3 µM (inactive) | 16.8 µM (inactive) | 21.2 µM (inactive) | 18.1 µM (inactive) | 16.4 µM (inactive) | 18.6 µM (inactive) | 18.2 µM (inactive) | 17.7 µM (inactive) | 48.3 µM (inactive) | 17.9 µM (inactive) | 18.5 µM (inactive) | 5.78 µM (inactive) | 5.58 µM (inactive) | 20.7 µM (inactive) | 16 µM (inactive) | 20.6 µM (inactive) | 4.61 µM (inactive) | 
COc1ccc(-c2nc3ncccn3c2-c2ccc(S(C)(=O)=O)cc2)cc1 | 24.9 µM (inactive) | > 100 µM (inactive) | > 100 µM (inactive) | > 100 µM (inactive) | 75.7 µM (inactive) | > 100 µM (inactive) | > 100 µM (inactive) | > 100 µM (inactive) | 53.8 µM (inactive) | > 100 µM (inactive) | 14.1 µM (inactive) | > 100 µM (inactive) | 66.4 µM (inactive) | > 100 µM (inactive) | > 100 µM (inactive) | > 100 µM (inactive) | > 100 µM (inactive) | > 100 µM (inactive) | 47.6 µM (inactive) | 
CCC1(O)C(=O)OCc2c1cc1n(c2=O)Cc2cc3cc4c(cc3nc2-1)OCO4 (stereo not given) | < 0.01 µM (active) | < 0.01 µM (active) | 0.127 µM (active) | < 0.01 µM (active) | 0.0466 µM (active) | < 0.01 µM (active) | < 0.01 µM (active) | 0.0113 µM (active) | 0.0276 µM (active) | 0.0242 µM (active) | 0.0191 µM (active) | 0.346 µM (active) | < 0.01 µM (active) | < 0.01 µM (active) | < 0.01 µM (active) | 0.857 µM (active) | < 0.01 µM (active) | < 0.01 µM (active) | < 0.215 µM (active) | 
CC(C)c1cc(=O)[nH]c2cc(N)ccc12 | > 100 µM (inactive) | > 100 µM (inactive) | > 100 µM (inactive) |  | > 100 µM (inactive) | > 100 µM (inactive) | > 100 µM (inactive) | > 100 µM (inactive) | > 100 µM (inactive) | > 100 µM (inactive) | > 100 µM (inactive) | > 100 µM (inactive) | > 100 µM (inactive) | > 100 µM (inactive) | > 100 µM (inactive) |  | 86.9 µM (inactive) | > 100 µM (inactive) | > 100 µM (inactive) | > 100 µM (inactive)
CCCCCCOC(=O)C(N)Cc1ccc(OC)cc1 (stereo not given) | > 100 µM (inactive) | > 100 µM (inactive) | > 100 µM (inactive) | > 100 µM (inactive) | > 100 µM (inactive) | > 100 µM (inactive) | > 100 µM (inactive) | > 100 µM (inactive) | > 100 µM (inactive) | > 100 µM (inactive) | 5.55 µM (inactive) | > 100 µM (inactive) | > 100 µM (inactive) | 26.6 µM (inactive) | > 100 µM (inactive) | > 100 µM (inactive) | > 100 µM (inactive) | > 100 µM (inactive) | > 100 µM (inactive) | 
C/C(=C\c1ccc2c(c1)OCO2)[N+](=O)[O-] | 2.28 µM (inactive) | 3.38 µM (inactive) | 2.99 µM (inactive) | 1.46 µM (inactive) | 1.66 µM (inactive) | 1.79 µM (inactive) | 2.01 µM (inactive) | 2.98 µM (inactive) | 2.34 µM (inactive) | 2.43 µM (inactive) | 2.51 µM (inactive) | 6.49 µM (inactive) | 3.26 µM (inactive) | < 0.01 µM (active) | 0.195 µM (active) | 5.14 µM (inactive) | 5.16 µM (inactive) | 4.2 µM (inactive) | 0.323 µM (active) | 
C=CCON(C(=O)OC(C)(C)C)C(C)(C)C | > 100 µM (inactive) |  | > 100 µM (inactive) | > 100 µM (inactive) | > 100 µM (inactive) | > 100 µM (inactive) | > 100 µM (inactive) | > 100 µM (inactive) | > 100 µM (inactive) | > 100 µM (inactive) | > 100 µM (inactive) | > 100 µM (inactive) | > 100 µM (inactive) | > 100 µM (inactive) | > 100 µM (inactive) | > 100 µM (inactive) | > 100 µM (inactive) | > 100 µM (inactive) | > 100 µM (inactive) | 
C/C(=N/NC(=S)Nc1ccc(Cl)cc1)c1cccc(/C(C)=N\NC(=S)Nc2ccc(Cl)cc2)n1 | 3.72 µM (inactive) | 10.7 µM (inactive) | 5.41 µM (inactive) |  | 1.49 µM (inactive) | 6.3 µM (inactive) | 2.54 µM (inactive) | 10.2 µM (inactive) | 1.74 µM (inactive) | 4.5 µM (inactive) | 3.17 µM (inactive) | 4.14 µM (inactive) | 3.49 µM (inactive) | 1.68 µM (inactive) | 2.34 µM (inactive) |  | 7.48 µM (inactive) | 5.55 µM (inactive) | 1.19 µM (inactive) | 17.1 µM (inactive)
CCOc1ncn(-c2ccc(NC(=S)NC3OC(CO)C(O)C(O)C3O)cc2)n1 (stereo not given) |  | > 100 µM (inactive) |  | > 100 µM (inactive) | > 100 µM (inactive) | > 100 µM (inactive) |  | > 100 µM (inactive) | > 100 µM (inactive) | > 100 µM (inactive) | > 100 µM (inactive) | > 100 µM (inactive) | > 100 µM (inactive) | > 100 µM (inactive) | > 100 µM (inactive) |  | > 100 µM (inactive) | > 100 µM (inactive) | > 100 µM (inactive) | > 100 µM (inactive)
C=CC1CCC[N+]1(CC(=O)OCC)Cc1ccccc1 (stereo not given) |  | > 100 µM (inactive) |  | > 100 µM (inactive) | > 100 µM (inactive) | > 100 µM (inactive) | > 100 µM (inactive) | > 100 µM (inactive) | > 100 µM (inactive) | > 100 µM (inactive) | > 100 µM (inactive) | > 100 µM (inactive) | > 100 µM (inactive) | > 100 µM (inactive) | > 100 µM (inactive) |  | > 100 µM (inactive) | > 100 µM (inactive) | > 100 µM (inactive) | > 100 µM (inactive)
N#C/C(=C\c1ccccc1)c1nc(-c2cc3ccccc3oc2=O)cs1 | > 100 µM (inactive) | > 100 µM (inactive) | > 100 µM (inactive) | > 100 µM (inactive) |  | 41.6 µM (inactive) | 38.6 µM (inactive) | > 100 µM (inactive) | 48.5 µM (inactive) | > 100 µM (inactive) | 32.1 µM (inactive) | 71.3 µM (inactive) | > 100 µM (inactive) | > 100 µM (inactive) | > 100 µM (inactive) | 48 µM (inactive) | 39.3 µM (inactive) | > 100 µM (inactive) | > 100 µM (inactive) | 
